Results reported in PubChem BioAssay (NCI).
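Test compounds were applied to cells in 96-well plates for 48 hours at 5 doses. TGI: concentration producing complete growth inhibition.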

How the values were obtained:
Assay in all cases: NCI tumour cell line growth inhibition, 48 h
A549 NSCLC = tested on: A549 NSCLC
RPMI-8226 leukemia = tested on: RPMI-8226 leukemia
K-562 leukemia = tested on: K-562 leukemia
HL-60(TB) leukemia = tested on: HL-60(TB) leukemia
SNB-19 CNS = tested on: SNB-19 CNS
SK-OV-3 ovarian = tested on: SK-OV-3 ovarian
OVCAR-3 ovarian = tested on: OVCAR-3 ovarian
LXFL 529 NSCLC = tested on: LXFL 529 NSCLC
UACC-257 melanoma = tested on: UACC-257 melanoma
DLD-1 colon = tested on: DLD-1 colon
NCI-H522 lung = tested on: NCI-H522 lung
DMS 114 small cell lung = tested on: DMS 114 small cell lung
SN12C renal = tested on: SN12C renal
HT29 colon = tested on: HT29 colon
COLO 205 colon = tested on: COLO 205 colon
MOLT-4 leukemia = tested on: MOLT-4 leukemia
XF 498 CNS = tested on: XF 498 CNS
KM12 colon = tested on: KM12 colon
MALME-3M melanoma = tested on: MALME-3M melanoma
SF-268 CNS = tested on: SF-268 CNS
NCI-H460 lung = tested on: NCI-H460 lung
SR leukemia = tested on: SR leukemia
KM20L2 colon = tested on: KM20L2 colon
U251 CNS = tested on: U251 CNS
M14 melanoma = tested on: M14 melanoma
CCRF-CEM leukemia = tested on: CCRF-CEM leukemia
HOP-62 NSCLC = tested on: HOP-62 NSCLC
SW-620 colon = tested on: SW-620 colon
TK-10 renal = tested on: TK-10 renal
SK-MEL-2 melanoma = tested on: SK-MEL-2 melanoma
SK-MEL-28 melanoma = tested on: SK-MEL-28 melanoma
NCI-H23 lung = tested on: NCI-H23 lung
SF-295 CNS = tested on: SF-295 CNS
HOP-92 NSCLC = tested on: HOP-92 NSCLC
HCT-116 colon = tested on: HCT-116 colon
SF-539 CNS = tested on: SF-539 CNS
HCT-15 colon = tested on: HCT-15 colon
LOX IMVI melanoma = tested on: LOX IMVI melanoma
M19-MEL melanoma = tested on: M19-MEL melanoma
OVCAR-4 ovarian = tested on: OVCAR-4 ovarian
786-0 renal = tested on: 786-0 renal
RXF 393 renal = tested on: RXF 393 renal
SNB-78 CNS = tested on: SNB-78 CNS
UO-31 renal = tested on: UO-31 renal
IGROV1 ovarian = tested on: IGROV1 ovarian
HOP-18 NSCLC = tested on: HOP-18 NSCLC
CAKI-1 renal = tested on: CAKI-1 renal
UACC-62 melanoma = tested on: UACC-62 melanoma
DMS 273 small cell lung = tested on: DMS 273 small cell lung
EKVX NSCLC = tested on: EKVX NSCLC
OVCAR-8 ovarian = tested on: OVCAR-8 ovarian
ACHN renal = tested on: ACHN renal
HCC-2998 colon = tested on: HCC-2998 colon
OVCAR-5 ovarian = tested on: OVCAR-5 ovarian
NCI-H226 lung = tested on: NCI-H226 lung
SK-MEL-5 melanoma = tested on: SK-MEL-5 melanoma
A498 renal = tested on: A498 renal
RXF-631 renal = tested on: RXF-631 renal
SNB-75 CNS = tested on: SNB-75 CNS
P388/ADR leukemia = tested on: P388/ADR leukemia
SN12K1 renal = tested on: SN12K1 renal
P388 leukemia = tested on: P388 leukemia

COc1cc2c(c(OC(C)=O)c1OC(C)=O)-c1ccc(SC)c(=O)cc1C(NC(C)=O)CC2 (stereo not drawn)
TGI (A549 NSCLC): > 100 µM
TGI (RPMI-8226 leukemia): > 100 µM
TGI (K-562 leukemia): 36.3 µM
TGI (HL-60(TB) leukemia): 1.34 µM
TGI (SNB-19 CNS): > 100 µM
TGI (SK-OV-3 ovarian): > 36 µM
TGI (OVCAR-3 ovarian): 2.43 µM
TGI (LXFL 529 NSCLC): > 82.3 µM
TGI (UACC-257 melanoma): > 100 µM
TGI (DLD-1 colon): > 100 µM
TGI (NCI-H522 lung): 1.2 µM
TGI (DMS 114 small cell lung): 6.11 µM
TGI (SN12C renal): > 100 µM
TGI (HT29 colon): > 44.8 µM
TGI (COLO 205 colon): 3.13 µM
TGI (MOLT-4 leukemia): > 100 µM
TGI (XF 498 CNS): 42.4 µM
TGI (KM12 colon): 12 µM
TGI (MALME-3M melanoma): > 100 µM
TGI (SF-268 CNS): > 100 µM
TGI (NCI-H460 lung): 20 µM
TGI (SR leukemia): > 100 µM
TGI (KM20L2 colon): 10.4 µM
TGI (U251 CNS): > 32 µM
TGI (M14 melanoma): > 69.1 µM
TGI (CCRF-CEM leukemia): 35.7 µM
TGI (HOP-62 NSCLC): > 75.5 µM
TGI (SW-620 colon): > 100 µM
TGI (TK-10 renal): > 100 µM
TGI (SK-MEL-2 melanoma): 7.07 µM
TGI (SK-MEL-28 melanoma): > 100 µM
TGI (NCI-H23 lung): 31.4 µM
TGI (SF-295 CNS): 10.1 µM
TGI (HOP-92 NSCLC): 7.29 µM
TGI (HCT-116 colon): 17.5 µM
TGI (SF-539 CNS): 1.64 µM
TGI (HCT-15 colon): > 100 µM
TGI (LOX IMVI melanoma): > 100 µM
TGI (M19-MEL melanoma): > 73.5 µM
TGI (OVCAR-4 ovarian): > 100 µM
TGI (786-0 renal): > 100 µM
TGI (RXF 393 renal): > 100 µM
TGI (SNB-78 CNS): > 100 µM
TGI (UO-31 renal): > 100 µM
TGI (IGROV1 ovarian): > 100 µM
TGI (HOP-18 NSCLC): > 100 µM
TGI (CAKI-1 renal): > 100 µM
TGI (UACC-62 melanoma): > 100 µM
TGI (DMS 273 small cell lung): > 100 µM
TGI (EKVX NSCLC): > 100 µM
TGI (OVCAR-8 ovarian): 55.1 µM
TGI (ACHN renal): > 100 µM
TGI (HCC-2998 colon): > 100 µM
TGI (OVCAR-5 ovarian): > 100 µM
TGI (NCI-H226 lung): 15.1 µM
TGI (SK-MEL-5 melanoma): 3.46 µM
TGI (A498 renal): 56.7 µM

C#CCN(N=O)C(=O)NCCCC(NC(C)=O)C(=O)NCc1ccccc1 (stereo not drawn)
TGI (A549 NSCLC): > 100 µM
TGI (RPMI-8226 leukemia): > 100 µM
TGI (K-562 leukemia): > 100 µM
TGI (SNB-19 CNS): > 100 µM
TGI (SK-OV-3 ovarian): > 100 µM
TGI (OVCAR-3 ovarian): > 100 µM
TGI (LXFL 529 NSCLC): > 100 µM
TGI (UACC-257 melanoma): > 100 µM
TGI (DLD-1 colon): > 100 µM
TGI (NCI-H522 lung): > 100 µM
TGI (DMS 114 small cell lung): > 100 µM
TGI (SN12C renal): > 100 µM
TGI (HT29 colon): > 100 µM
TGI (COLO 205 colon): > 100 µM
TGI (MOLT-4 leukemia): > 100 µM
TGI (XF 498 CNS): 84.4 µM
TGI (KM12 colon): > 100 µM
TGI (MALME-3M melanoma): > 100 µM
TGI (SF-268 CNS): > 100 µM
TGI (NCI-H460 lung): > 100 µM
TGI (SR leukemia): 51 µM
TGI (KM20L2 colon): > 100 µM
TGI (U251 CNS): > 100 µM
TGI (M14 melanoma): > 100 µM
TGI (RXF-631 renal): > 100 µM
TGI (CCRF-CEM leukemia): 70.3 µM
TGI (HOP-62 NSCLC): > 100 µM
TGI (SW-620 colon): > 100 µM
TGI (TK-10 renal): > 100 µM
TGI (SK-MEL-28 melanoma): > 100 µM
TGI (NCI-H23 lung): > 100 µM
TGI (SF-295 CNS): > 100 µM
TGI (HOP-92 NSCLC): > 100 µM
TGI (HCT-116 colon): > 100 µM
TGI (SF-539 CNS): > 100 µM
TGI (HCT-15 colon): > 100 µM
TGI (LOX IMVI melanoma): > 100 µM
TGI (M19-MEL melanoma): > 100 µM
TGI (OVCAR-4 ovarian): > 100 µM
TGI (786-0 renal): > 100 µM
TGI (RXF 393 renal): > 100 µM
TGI (SNB-78 CNS): > 100 µM
TGI (UO-31 renal): > 100 µM
TGI (IGROV1 ovarian): > 100 µM
TGI (SNB-75 CNS): > 100 µM
TGI (HOP-18 NSCLC): > 100 µM
TGI (CAKI-1 renal): > 100 µM
TGI (UACC-62 melanoma): > 100 µM
TGI (EKVX NSCLC): > 100 µM
TGI (OVCAR-8 ovarian): > 100 µM
TGI (ACHN renal): > 100 µM
TGI (HCC-2998 colon): > 100 µM
TGI (OVCAR-5 ovarian): > 100 µM
TGI (NCI-H226 lung): > 100 µM
TGI (SK-MEL-5 melanoma): > 100 µM
TGI (A498 renal): > 100 µM

N#CCCN(CCC#N)c1ccc(/C=C2\N=C(c3cc([N+](=O)[O-])ccc3Cl)N(NC(=O)CC(=O)Nc3ccccc3Cl)C2=O)cc1
TGI (A549 NSCLC): > 100 µM
TGI (RPMI-8226 leukemia): > 100 µM
TGI (K-562 leukemia): > 100 µM
TGI (SNB-19 CNS): > 100 µM
TGI (SK-OV-3 ovarian): > 100 µM
TGI (OVCAR-3 ovarian): > 100 µM
TGI (LXFL 529 NSCLC): > 100 µM
TGI (DLD-1 colon): > 100 µM
TGI (NCI-H522 lung): > 100 µM
TGI (DMS 114 small cell lung): > 100 µM
TGI (SN12C renal): > 100 µM
TGI (COLO 205 colon): > 100 µM
TGI (MOLT-4 leukemia): > 100 µM
TGI (XF 498 CNS): > 100 µM
TGI (KM12 colon): > 100 µM
TGI (MALME-3M melanoma): > 100 µM
TGI (SF-268 CNS): > 100 µM
TGI (SR leukemia): > 100 µM
TGI (KM20L2 colon): 34.5 µM
TGI (U251 CNS): > 100 µM
TGI (M14 melanoma): > 100 µM
TGI (CCRF-CEM leukemia): > 100 µM
TGI (HOP-62 NSCLC): > 100 µM
TGI (SW-620 colon): > 100 µM
TGI (TK-10 renal): > 100 µM
TGI (SK-MEL-2 melanoma): > 100 µM
TGI (SK-MEL-28 melanoma): > 100 µM
TGI (NCI-H23 lung): > 100 µM
TGI (SF-295 CNS): > 100 µM
TGI (HOP-92 NSCLC): > 100 µM
TGI (HCT-116 colon): > 100 µM
TGI (SF-539 CNS): > 100 µM
TGI (HCT-15 colon): > 100 µM
TGI (LOX IMVI melanoma): > 100 µM
TGI (M19-MEL melanoma): > 100 µM
TGI (OVCAR-4 ovarian): > 100 µM
TGI (RXF 393 renal): > 100 µM
TGI (SNB-78 CNS): > 100 µM
TGI (UO-31 renal): > 100 µM
TGI (IGROV1 ovarian): > 100 µM
TGI (CAKI-1 renal): > 100 µM
TGI (UACC-62 melanoma): > 100 µM
TGI (DMS 273 small cell lung): > 100 µM
TGI (EKVX NSCLC): > 100 µM
TGI (OVCAR-8 ovarian): > 100 µM
TGI (ACHN renal): > 100 µM
TGI (HCC-2998 colon): > 100 µM
TGI (OVCAR-5 ovarian): 66.5 µM
TGI (NCI-H226 lung): 35.6 µM
TGI (SK-MEL-5 melanoma): > 100 µM

CCC(C)C1NC(=O)CNC(=O)C2Cc3c([nH]c4cc(O)ccc34)S(=O)CC(NC(=O)CNC1=O)C(=O)NC(CC(=O)O)C(=O)N1CC(O)CC1C(=O)NC(C(C)C(O)CO)C(=O)N2 (stereo not drawn)
TGI (P388/ADR leukemia): 18.4 µM
TGI (UACC-257 melanoma): 6.73 µM
TGI (DLD-1 colon): > 100 µM
TGI (DMS 114 small cell lung): 3.78 µM
TGI (XF 498 CNS): 5.88 µM
TGI (SN12K1 renal): > 100 µM
TGI (KM20L2 colon): > 100 µM
TGI (P388 leukemia): 14.9 µM
TGI (NCI-H23 lung): 5.81 µM
TGI (HOP-92 NSCLC): 5.78 µM
TGI (M19-MEL melanoma): 24.2 µM
TGI (SNB-78 CNS): > 100 µM
TGI (HOP-18 NSCLC): > 88.9 µM
TGI (DMS 273 small cell lung): 14.9 µM
TGI (NCI-H226 lung): 8.08 µM
